From patent US10688092B2, “Compositions and methods of using nintedanib for improving glaucoma surgery success” (Cloudbreak Therapeutics, LLC, priority 2016, dated 2020)

Columns and labels:
[1] = test system: rabbit model of glaucoma filtration surgery; assay: Rabbit glaucoma filtration surgery model; type: in vivo, New Zealand White rabbits
Description: The rabbit glaucoma surgery model is used to illustrate use of the presently disclosed methods for improving the success of glaucoma filtration surgery. Specifically, an established rabbit model of glaucoma filtration surgery would be used to study the effects of nintedanib 0.2% solution on the wound-healing events after surgery. The surgical procedure is as described in Wong et al. (Wong et al. Invest Ophthalmol Vis Sci. 2003; 44(3):1097-1103). Briefly, a partial thickness 8-0 silk corneal traction suture is placed superiorly, and the eye pulled down. A fornix based conjunctival flap is raised, after which a blunt dissection of the subconjunctival space is performed of approximately 5 mm along the limbus and 8 mm posteriorly. A microvitreoretinal (MVR) blade is used to make a partial-thickness scleral incision 3 to 4 mm behind the limbus, and a scleral tunnel to the corneal stroma is fashioned. A 22-gauge, 25-mm intravenous cannula (Venflon 2; Beckton Dickinson, Oxford, UK) is passed through a scleral tunnel anteriorly until the cannula needle is visible in the clear cornea. Entry into the anterior chamber is made with a cannular needle, which is then withdrawn as the cannula is advanced to the mid-pupillary area. The cannula is trimmed and beveled at its scleral end so that it protrudes 1 mm from the insertion point, and a 10-0 nylon suture is placed to fix the tube to the scleral surface. The conjunctival incision is closed with two interrupted sutures and a central, mattress-type 10-0 nylon suture attached to a needle (B/V 100-4; Ethicon) to give a water-tight closure. One drop each of guttae chloramphenicol and Betnesol-N(Glaxo Wellcome, Uxbridge, UK) ointment is instilled at the end of surgery.
Twenty female New Zealand White rabbits (2-2.4 kg, 12-14 weeks old; Charles River) would be acclimatized for 5 days before the experiments start. Glaucoma surgery would be performed on the left eye as described. After surgery, the rabbits would be arranged into two groups and one group would be treated with vehicle and another with nintedanib 0.2% solution. Treatments would begin immediately after surgery and the treatment would be TID for 2 weeks. The survival of the bleb formed by the surgery and the intraocular pressure (IOP) would be followed for 28 days. Histological analysis of the scar tissue would be performed at the end of the study.

[2] = test system: patients with medically uncontrolled open-angle glaucoma scheduled for a primary trabeculectomy; assay: Clinical study of topical nintedanib 0.2% as adjunct therapy to trabeculectomy; type: in vivo, human
Description: Topical nintedanib 0.2% as adjunct therapy to increase success of trabeculectomy in a clinical study. A randomized, double-masked, placebo-controlled, 12-month experimental trial to test the effects of topical nintedanib 0.2% on the success rate of trabeculectomy. The study design would be as described by Vandewalle et. al. (Vandewalle et. al. Br J Ophthalmol. 2014, January; 98(1):73-8).
Patients with medically uncontrolled open-angle glaucoma scheduled for a primary trabeculectomy would be enrolled and randomized to receive one drop TID of either nintedanib or placebo solutions. The treatment would start immediately after surgery and would last for a month. Approximately 150 patients would be enrolled in the study.
Surgeries would be performed under general or retrobulbar anaesthesia by experienced surgeons using a modified Moorfields technique. IOP would be measured by Goldmann applanation tonometry. Two measurements would be taken by masked observers and averaged to determine the mean IOP if two values were within 2 mm Hg. A third measurement would be taken if the difference between the first two determinations is >2 mm Hg.
Patients would be examined on day 1; at weeks 1, 2, and 4; and at months 3, 6, and 12 after trabeculectomy. […] The number of postoperative IOP-lowering medications, intra- and postoperative complications, and surgical interventions would also be recorded. […]

COC(=O)c1ccc2c(c1)NC(=O)/C2=C(\Nc1ccc(N(C)C(=O)CN2CCN(C)CC2)cc1)c1ccccc1 [nintedanib, Methyl (3Z)-3-{[(4-{methyl[(4-methylpiperazin-1-yl)acetyl]amino}phenyl)amino] (phenyl)methylidene}-2-oxo-2,3-dihydro-1H-indole-6-carboxylate]
bleb survival at end of study ([1]; day 28, no bleb would survive in the vehicle group): most of the bleb would survive | histological analysis of scar tissue at the surgical site ([1]; end of study, compared with vehicle group): less scar tissue | Surgery success outcome ([1]; nintedanib 0.2% solution TID for 2 weeks after surgery, compared with vehicle group): significantly prolonged | bleb survival (survival curve of the bleb after surgery, FIG. 2) ([1]; nintedanib 0.2% solution TID for 2 weeks, followed for 28 days, compared with vehicle group): substantially prolonged | IOP during the follow up period after the surgery (FIG. 3) ([1]; nintedanib 0.2% solution TID for 2 weeks, followed for 28 days, IOP increased gradually in vehicle group): below 20 mm | IOP compared to baseline ([2]; 12-month visit, one drop TID for a month after surgery): effectively reduced | absolute success rate of glaucoma surgery (FIG. 4) ([2]; vs the placebo group, differences statistically significant at time points after 6 months): higher
